Measurements reported in article PMC4257840 (Journal of Medicinal Chemistry, 2014).

Assays:
[1] = target: T1, human recombinant caspase 1 (Homo sapiens, UniProt P29466); assay: Protease counter-screening: Caspase 1; type: biochemical
T1 construct: host or cells: E. coli
Procedure: (§1) Appendix 7. Protease Counter -Screening
(§2) Protease counter-screeni ng was performed using the methods described below. Initial screening was conducted in duplicate using a single test substance concentration of 10 µ M .
(§3) Additional assays were conducted in replicate for selected pairin gs of test s ubstance and enz yme in order to enable the determination of IC50 values using conventional procedures.
(§4) Determination of K i was made using the Batch K i program (Biokin Ltd, Pullman, WA) to derive values from the Morrison equation: […]
(§5) Where [E ] is the active enz yme concentration, Kiapp is the apparent inhibition const ant, v 0 is the control velocit y in the absence of inhibitors, vb is the background velocity, v is the initial reaction velocit y in the presence of inhibitor, and I is the inhibitor concentration.Thence:
(§6) Where [S ] is the substrate concentration and KM is the Michealis constant. […]
by addition of 50 µM Ac-DEVD-AMC for another 60 min incubation period. The amount of AMC formed was determined fluorimetricall y (excitation 360 nm/emission 465 nm). […]
by addition of 25 µM Ac-LEH D-A FC for another 60 min incubation period. The amount of amino-4- trifluorometh ylcoumarin (AFC) formed determined fluorimetrically (400nm/ 510nm).
Cathepsin C: Cathepsin C from bovine spleen was used as the source of enz yme. […] T he amount of AMC product formed was read spectrofluorimetrically

recombinant human Cat S = recombinant human Cat S (Homo sapiens, UniProt P25774); assay: Cathepsin S inhibition assay; type: biochemical; details: Table S1 counter-screening; read-out: Cathepsin S IC50
Procedure: In all cases, for reactions involving inhibitors, the amount of reaction buffer was adjusted to 60 μL, the inhibitor added as a 10 μL aliquot, and incubated for 20 min with the enzyme prior to reaction start.

[2] = Plasma protein binding, Rapid Equilibrium Dialysis; type: in vitro ADME; details: both sexes, Sprague Dawley, plasma (EDTA K2, pooled), rat plasma, 4 h at 37 °C, read-out: PPB (converted)
Procedure: Appendix 2. Pharmaco kinetics an d P l a s ma Protein Binding […]
Plasma Protein Binding Assay. PPB was determined with a Rapid Equilibrium Dialysis device using 8 kDa molecular weight cut-off inserts (Fisher Scientific UK Ltd, Leicest ershire, UK) as described b y the manufacturer. R at (Sprague Dawl e y strain) plasma EDTA K2 (mixed gender, pooled, SeraLab, West Sussex, UK) was thawed and centrifuged at 13,000 x g for 10 min to remove precipitates before being spiked with compounds (5 µM). The concentrations of compounds in the plasma and buffer chambers were determined b y LC -MS-MS (AB Sciex 3200 QTrap) anal ysis after 4 h incubation at 37 °C. Binding was calculated from the concentration percentage in both chambers as shown below. Assays were p erfo rmed in replicate and the data

Human pancreatic trypsin = assay: Protease counter-screening: Trypsin; type: biochemical; details: 10 µM
Procedure: as §1, §2, §3, §4, §5
Where [S ] is the substrate concentration and KM is the Michealis constant.
Caspase 1: Activity against human recombinant caspase 1 expressed in E. coli was tested using Ac-YVAD- AMC as the substrate. Test compound or vehicle was pre- incubated with 600 […]
followed by excitation/emission at 485/535 nm. […]
AMC formation was read at 360 nm/465 nm.
Cathepsin L2: Human recombinant cathepsin L2 expressed in NS0 cells was used as the enzyme source. […] Form ation of AMC was measured at 360 […]
The amount of AMC formed was read spectrofluorimetricall y at 360 nm/465 nm. […]

[3] = target: T2, Human recombinant dipeptidyl peptidase IV (Homo sapiens, UniProt P27487); assay: Protease counter-screening: Dipeptidyl Dipeptidase IV; type: biochemical
T2 construct: host or cells: insect Sf9 cells
Procedure: as §1, §2, §3, §4, §5, §6
Test compound or vehicle was pre- incubated with 600 […]
The reaction was […]
initiated by addition of 1 µM N-CH3-SO2-D-FGR-pNA for another 120 min incubation period. […]
Factor Xa: Test compound or vehicle was pre -incubated for 15 min at 25 °C in modified 50 mM Tris-HCl buffer pH 7.6 containing 0.4 nM Factor Xa from human plasma. The reaction was initiated by addition of 0.3 mM N-a-Z-D-RGR-pNA for another 60 min incubation period. The amount of pNA form ed was measur ed at 405 nm. […]

T2 sequence (P27487 whole entry): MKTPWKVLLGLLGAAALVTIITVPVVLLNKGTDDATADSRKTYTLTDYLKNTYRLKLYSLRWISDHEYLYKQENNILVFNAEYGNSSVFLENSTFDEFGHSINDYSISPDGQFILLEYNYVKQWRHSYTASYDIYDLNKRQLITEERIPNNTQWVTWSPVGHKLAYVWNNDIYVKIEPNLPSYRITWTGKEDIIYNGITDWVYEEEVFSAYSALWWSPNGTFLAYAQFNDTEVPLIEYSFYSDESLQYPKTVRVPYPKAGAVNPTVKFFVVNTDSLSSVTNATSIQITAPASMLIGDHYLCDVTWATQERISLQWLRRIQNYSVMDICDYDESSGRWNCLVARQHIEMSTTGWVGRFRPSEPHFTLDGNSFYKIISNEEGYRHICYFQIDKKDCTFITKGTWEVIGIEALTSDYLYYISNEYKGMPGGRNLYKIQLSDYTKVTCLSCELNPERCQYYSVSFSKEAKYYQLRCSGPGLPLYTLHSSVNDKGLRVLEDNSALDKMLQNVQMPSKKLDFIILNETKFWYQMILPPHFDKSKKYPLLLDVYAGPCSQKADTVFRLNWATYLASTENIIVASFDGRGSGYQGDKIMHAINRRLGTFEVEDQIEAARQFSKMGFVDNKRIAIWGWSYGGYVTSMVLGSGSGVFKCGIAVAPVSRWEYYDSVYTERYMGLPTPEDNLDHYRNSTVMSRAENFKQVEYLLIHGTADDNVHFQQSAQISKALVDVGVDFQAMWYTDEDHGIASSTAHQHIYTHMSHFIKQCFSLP
Sequence of recombinant human Cat S (P25774 115-331): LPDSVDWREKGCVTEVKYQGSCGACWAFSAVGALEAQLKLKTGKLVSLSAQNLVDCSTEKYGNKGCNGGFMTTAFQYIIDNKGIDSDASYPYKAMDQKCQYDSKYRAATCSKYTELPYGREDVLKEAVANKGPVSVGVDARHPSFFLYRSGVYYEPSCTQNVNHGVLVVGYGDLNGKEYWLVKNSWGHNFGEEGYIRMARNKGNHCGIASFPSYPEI
T1 sequence (P29466 120-297 limits assumed): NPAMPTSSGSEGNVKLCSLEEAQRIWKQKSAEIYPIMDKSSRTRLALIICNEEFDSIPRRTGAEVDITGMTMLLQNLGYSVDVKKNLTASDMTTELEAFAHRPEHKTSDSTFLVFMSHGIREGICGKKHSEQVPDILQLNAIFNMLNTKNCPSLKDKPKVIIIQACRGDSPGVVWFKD
T1 sequence (P29466 317-404 limits assumed): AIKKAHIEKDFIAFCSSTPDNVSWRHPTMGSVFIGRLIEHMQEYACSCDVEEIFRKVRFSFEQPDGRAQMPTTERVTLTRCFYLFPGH

CC(C)[C@H](NC(=O)[C@H](C)NC(=O)[C@@H](NC(=O)c1ccccc1)C(C)(C)C)C(=O)C(=O)NCc1ccccc1 [Compound 38, N-{(S)-1-[(S)-1-((S)-1-Benzylaminooxalyl-2-methyl-propylcarbamoyl)-ethylcarbamoyl]-2,2-dimethyl-propyl}-benzamide]
inhibition at 10 µM [1]: 8% | IC50 (recombinant human Cat S): 170 nM | fraction unbound at 4 h, 5 µM [2]: 0.04 | Trypsin inhibition (Human pancreatic trypsin): 9% | inhibition at 10 µM [3]: 0%
